Experimental data taken from PubChem BioAssay (NCI).
Where “and” joins values, the source holds several entries; their conditions need not be identical. Equal entries are not always repeated.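 Briefly, cells in 96-well plates were exposed to five compound concentrations for 48 h, and endpoints were estimated by linear interpolation. The concentration for 50% growth inhibition is given as GI50. At the TGI there is no net growth.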

What was measured:
Test in all cases: DTP human tumour cell line panel, 48 h
SF-268 CNS = system: SF-268 CNS
U251 CNS = system: U251 CNS
SK-MEL-5 melanoma = system: SK-MEL-5 melanoma
OVCAR-8 ovarian = system: OVCAR-8 ovarian
ACHN renal = system: ACHN renal
SK-OV-3 ovarian = system: SK-OV-3 ovarian
T-47D breast = system: T-47D breast
OVCAR-5 ovarian = system: OVCAR-5 ovarian
SW-620 colon = system: SW-620 colon
RPMI-8226 leukemia = system: RPMI-8226 leukemia

Row | SMILES | GI50 (SF-268 CNS) | TGI (SF-268 CNS) [µM] | GI50 (U251 CNS) | TGI (U251 CNS) [µM] | GI50 (SK-MEL-5 melanoma) | TGI (SK-MEL-5 melanoma) | GI50 (OVCAR-8 ovarian) [µM] | TGI (OVCAR-8 ovarian) [µM] | GI50 (ACHN renal) [µM] | TGI (ACHN renal) [µM] | GI50 (SK-OV-3 ovarian) | TGI (SK-OV-3 ovarian) [µM] | GI50 (T-47D breast) | TGI (T-47D breast) [µM] | GI50 (OVCAR-5 ovarian) [µM] | TGI (OVCAR-5 ovarian) [µM] | GI50 (SW-620 colon) | TGI (SW-620 colon) [µM] | GI50 (RPMI-8226 leukemia) | TGI (RPMI-8226 leukemia) [µM]
1 | Cc1nc2ccccn2c1NC(=O)NN1C(=O)CSC1c1ccc(Cl)cc1 (stereo unspecified) | > 100 µM | > 100 | > 100 µM | > 100 | > 100 µM | > 100 µM | > 100 | > 100 | > 100 | > 100 | > 100 µM | > 100 | > 100 µM | > 100 | > 100 | > 100 | > 100 µM | > 100 | > 100 µM | > 100
2 | O=C(Nc1ccc(OS(=O)(=O)c2ccc(F)cc2)cc1)C12CC3CC(CC(C3)C1)C2 | 19.8 µM | > 100 | 18 µM | > 100 | 4.12 µM | > 100 µM | 18.1 | > 100 | 14.6 | > 100 | 10.3 µM | 47.3 | 0.831 µM | > 100 | 26.1 | > 100 | 0.54 µM | > 100 | 0.403 µM | > 100
3 | CCn1cnc(C[C@H](NC(=O)[C@H](CCCCNC(=O)Nc2cc(C(F)(F)F)cc(C(F)(F)F)c2)NC(=O)Nc2cc(C(F)(F)F)cc(C(F)(F)F)c2)C(=O)OC)c1 | 6.04 µM | > 10 | 3.8 µM | > 10 | 7.75 µM | > 10 µM | 5.02 | > 10 | 5.61 | > 10 | > 10 µM | > 10 | 4.83 µM | > 10 | > 10 | > 10 | 6.86 µM | > 10 | 3.08 µM | > 10
4 | N#C/C(=C\c1ccc(O)c(O)c1)C(=O)NCc1ccc(C(F)(F)F)cc1 | 14.9 µM | > 62.9 | 5.67 µM | 28.9 | 8.09 µM | 24.4 µM | 10.1 | > 49.7 | 6.14 | 23.9 | 16.6 µM | 61.4 | 8.72 µM | 59.8 | 14.2 | 44.7 | 7.68 µM | 37.8 | 3.21 µM | –
5 | C[C@@H](C1CC[C@H]2[C@@H]3[C@@H]4O[C@@H]4[C@@]4(O)CC=CC(=O)[C@]4(C)[C@H]3C[C@H](O)[C@]12C)[C@H]1C[C@]2(C)O[C@]2(C)C(=O)O1 (stereo partly specified) | – | > 100 | – | > 100 | – | > 100 µM | – | > 100 | – | > 100 | – | > 100 | – | > 100 | – | > 100 | – | > 100 | – | > 100
6 | Cc1cc2c(cc1Cl)SC(N(c1ccccc1Cl)S(=O)(=O)c1ccc(Br)s1)=NS2(=O)=O | 12.7 µM | 30.7 | 16.5 µM | 46.3 | 13.8 µM | 26.7 µM | – | – | 22.4 | 84.7 | 24.8 µM | > 100 | 4.95 µM | 23 | 60 | > 100 | 14.9 µM | 30.4 | 24.8 µM | 82.3
7 | Cc1cc(=O)oc2c(C3=NN(C=O)C(c4ccccc4)C3)c(O)ccc12 (stereo unspecified) | – | > 100 | – | > 100 | – | > 100 µM | – | > 100 | – | > 42.8 | – | 48.2 | – | > 100 | – | > 100 | – | > 100 | – | > 100
8 | COc1ccc2[nH]c(Cl)c(/C=C3/C(=O)Nc4ccccc43)c2c1 | 0.939 µM | 36.5 | 0.861 µM | 2.75 | 0.0902 µM | 0.722 µM | 0.498 | – | 0.786 | 5.85 | 0.865 µM | 16.9 | 5.4 µM | 84.5 | 0.554 | 3.12 | 0.366 µM | 7.58 | 0.213 µM | 0.591
9 | Cc1cc(F)c(C(=O)Nc2cccc(-c3nncn3C(C)C)n2)cc1-n1cnc(C2CC2)c1 | 21.5 µM | > 100 | 17.1 µM | > 100 | 11.3 µM | 23.6 µM | 18.3 | 68 | 10.4 | 27.7 | 24.5 µM | > 100 | 2.01 µM | 9.95 | 19.9 | > 100 | 20.8 µM | > 100 | 7.54 µM | 35.3
10 | O=C(NC1CCN(Cc2ccccc2)CC1)c1cc(-c2cccnc2)nc2ccc(Cl)cc12 | 9.27 µM | 70.1 | 6.94 µM | 22.5 | 3.91 µM | > 100 µM | 10.4 | 35.4 | 2.36 | 6.54 | 14.1 µM | 42.7 | 3.7 µM | 53.1 | 10.8 | > 100 | 11.5 µM | > 100 | 6.62 µM | > 100
11 | CCN(C(=O)N1CCN(c2cc3c(cc2F)c(=O)c(C(=O)O)cn3C2CC2)CC1)c1nc(-c2ccccc2)cs1 | 3.29 µM | > 100 | 3.25 µM | 22.9 | 3.63 µM | 55.6 µM | 3.33 | > 100 | 1.69 | 9.47 | 2.1 µM | 6.86 | 2.57 µM | > 100 | 3.27 | > 100 | 3.93 µM | > 100 | 2.41 µM | 8.75
12 | CC(=O)N[C@H](C)[C@@H](O)[C@@H](C)[C@@H]1OC(=O)/C=C/C=C(C)\C=C\[C@]2(C)C[C@@H](NS(C)(=O)=O)C=C[C@@H]2/C=C(C)/C=C/[C@H]1C | 0.357 µM and 0.0531 µM | > 43.5 | 0.00368 µM and 0.00435 µM | > 43.5 | 0.00313 µM and 0.00786 µM | 0.0151 µM and 0.0256 µM | 0.017 | > 43.5 | 0.0125 | > 43.5 | 0.00446 µM and 0.00599 µM | 0.0397 | 0.00343 µM and 0.00506 µM | > 43.5 | > 43.5 | > 43.5 | 0.00821 µM and 0.0135 µM | > 43.5 | 0.00766 µM and 0.0153 µM | > 43.5
